Reference: the NIST ThermoML archive (doi:10.1016/j.tca.2010.01.021)

Experiment: molar heat capacity at constant pressure
Conditions: 101.33 kPa, Crystal, Small (less than 1 g) adiabatic calorimetry

N.O=C(O)c1ccccc1 [ammonium benzoate]
Conditions	molar heat capacity at constant pressure [J/K/mol]
80.23 K	65.17
81.77 K	66.19
84.03 K	67.46
86.2 K	68.89
88.38 K	69.94
90.56 K	71.51
92.57 K	72.72
94.64 K	74.19
96.64 K	75.8
98.62 K	77.01
100.55 K	78.03
102.41 K	79.33
104.34 K	80.86
106.2 K	81.8
107.97 K	83.16
109.83 K	84.27
111.6 K	85.3
113.37 K	86.37
115.15 K	87.62
116.84 K	88.74
118.61 K	90.01
120.31 K	91.47
122.97 K	92.89
126.27 K	94.89
129.18 K	96.99
132.16 K	98.85
135.06 K	100.95
138.04 K	102.77
141.02 K	104.57
144.01 K	106.24
147 K	108.24
149.93 K	110.5
152.9 K	112.26
155.86 K	113.91
158.85 K	116.09
161.8 K	118.15
164.77 K	120.01
167.74 K	121.97
170.72 K	124.05
173.71 K	125.52
176.67 K	127.13
179.65 K	129.42
183.76 K	131.94
187.79 K	134.2
190.78 K	136.42
193.75 K	138.62
196.71 K	140.39
199.69 K	142.17
202.71 K	144.2
205.7 K	146.13
208.67 K	148.09
211.63 K	149.94
214.62 K	152.01
217.63 K	153.98
220.61 K	155.64
223.59 K	157.46
226.57 K	159.31
229.56 K	161.33
232.46 K	163.12
235.52 K	164.85
238.67 K	166.71
242.46 K	169.25
246.17 K	170.85
249.15 K	172.58
252.13 K	174.29
255.04 K	176.25
258.02 K	177.81
261.08 K	179.36
264.07 K	180.92
267.13 K	182.91
270.11 K	184.57
273.1 K	186.5
276.05 K	188.1
279 K	189.37
281.97 K	190.96
284.95 K	192.56
287.93 K	194.07
291 K	195.71
293.98 K	197.29
296.96 K	199.56
299.95 K	200.88
302.93 K	203.11
305.83 K	204.55
308.82 K	205.93
311.72 K	207.7
314.7 K	209.41
317.68 K	210.92
320.75 K	212.63
323.73 K	214.01
326.71 K	215.52
329.78 K	216.96
332.76 K	218.8
335.75 K	220.31
338.73 K	222.08
341.71 K	223.72
344.61 K	225.36
347.6 K	226.81
350.5 K	228.38
353.48 K	229.7
356.55 K	231.21
359.53 K	232.72
362.59 K	234.1
365.58 K	235.61
368.56 K	237.58
371.54 K	239.09
374.53 K	240.86
377.51 K	242.44
380.49 K	243.95
383.4 K	245.72
386.3 K	247.56
389.28 K	249.39
392.35 K	251.17
395.33 K	252.68
398.31 K	254.12
